Laboratory results from the NIST ThermoML archive (doi:10.1016/j.jct.2005.03.016).

Assay: xn = mol fraction of the nth substance listed
Conditions: Liquid, Vibrating tube method, x1 = 1

CCO [ethanol] + CC1CCCCC1
mass density [kg/m3]
Conditions | 100 kPa | 5000 kPa | 10000 kPa | 15000 kPa | 20000 kPa | 25000 kPa | 30000 kPa | 35000 kPa | 40000 kPa | 45000 kPa
283.15 K | 798 | 802 | 805.9 | 809.5 | 813 | 816.4 | 819.7 | 822.8 | 825.9 | 828.8
293.15 K | 789.5 | 793.7 | 797.8 | 801.6 | 805.3 | 808.9 | 812.3 | 815.6 | 818.7 | 821.8
303.15 K | 780.9 | 785.3 | 789.6 | 793.7 | 797.5 | 801.3 | 804.8 | 808.2 | 811.5 | 814.7
313.15 K | 772.1 | 776.8 | 781.3 | 785.6 | 789.6 | 793.5 | 797.2 | 800.8 | 804.2 | 807.6
323.15 K | 763.3 | 768.3 | 773 | 777.6 | 781.8 | 785.9 | 789.7 | 793.5 | 797.1 | 800.5
333.15 K | 754 | 759.3 | 764.3 | 769.1 | 773.6 | 777.8 | 781.9 | 785.8 | 789.5 | 793.1
343.15 K | 744.5 | 750.1 | 755.5 | 760.5 | 765.3 | 769.8 | 774 | 778.1 | 782 | 785.7
353.15 K | – | 740.6 | 746.4 | 751.7 | 756.7 | 761.5 | 766 | 770.2 | 774.3 | 778.2
